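Assay format: 96-well plates, 48-hour exposure. Abbreviation: GI50, concentration required for 50% inhibition of growth.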 Active and inactive are the calls of the source. Rule as the data show it: active = GI50 up to about 1.1 µM and inactive = higher.
Columns and labels:
Assay in all cases: NCI anticancer screen, dose series, 48 h
BT-549 = tested on: BT-549
HOP-62 = tested on: HOP-62
MDA-MB-231 = tested on: MDA-MB-231
SF-268 = tested on: SF-268
OVCAR-8 = tested on: OVCAR-8
UACC-62 = tested on: UACC-62
K562 = tested on: K562
HCC 2998 = tested on: HCC 2998
NCI-H460 = tested on: NCI-H460
HCT-116 = tested on: HCT-116
HL-60 = tested on: HL-60
U-251 = tested on: U-251
SK-OV-3 = tested on: SK-OV-3
HCT-15 = tested on: HCT-15
SK-MEL-2 = tested on: SK-MEL-2
ACHN = tested on: ACHN
OVCAR-5 = tested on: OVCAR-5
NCI/ADR-RES = tested on: NCI/ADR-RES
UO-31 = tested on: UO-31
NCI-H522 = tested on: NCI-H522

Measured: GI50

Cc1cc(=O)oc2cc(O)ccc12 [HYMECROMONE]
> 100 µM: HCT-15
inactive: BT-549 88.3 µM | HOP-62 > 100 µM | MDA-MB-231 > 100 µM | SF-268 > 100 µM | OVCAR-8 > 100 µM | UACC-62 > 100 µM | K562 > 100 µM | HCC 2998 > 100 µM | NCI-H460 > 100 µM | HCT-116 > 100 µM | HL-60 > 100 µM | U-251 > 100 µM | SK-OV-3 > 100 µM | SK-MEL-2 > 100 µM | ACHN > 100 µM | OVCAR-5 > 100 µM | NCI/ADR-RES > 100 µM | UO-31 > 100 µM | NCI-H522 > 100 µM

Oc1c(/N=N/c2ccccc2)c2ccccc2c2ccc3ccccc3c12
inactive: BT-549 73.8 µM | HOP-62 43.6 µM | MDA-MB-231 78.3 µM | SF-268 > 100 µM | OVCAR-8 76.6 µM | UACC-62 66.1 µM | K562 35.3 µM | HCC 2998 > 100 µM | NCI-H460 > 100 µM | HCT-116 > 100 µM | HL-60 47.3 µM | U-251 39.6 µM | SK-OV-3 > 100 µM | SK-MEL-2 > 100 µM | ACHN 55.3 µM | OVCAR-5 > 100 µM | NCI/ADR-RES > 100 µM | UO-31 > 100 µM | NCI-H522 > 100 µM
> 100 µM: HCT-15

CC[C@@]1(O)C(=O)OCc2c1cc1n(c2=O)Cc2c-1nc1ccccc1c2/C=N\NC(=O)C(N)CCSC (stereo not given in full)
active: BT-549 0.102 µM | HOP-62 < 0.01 µM | SF-268 < 0.01 µM | OVCAR-8 < 0.0119 µM | UACC-62 < 0.01 µM | K562 0.0109 µM | HCC 2998 0.336 µM | NCI-H460 < 0.01 µM | HCT-116 0.0253 µM | HL-60 < 0.01 µM | U-251 < 0.01 µM | SK-OV-3 < 0.0127 µM | SK-MEL-2 0.713 µM | ACHN < 0.01 µM | OVCAR-5 0.774 µM | NCI/ADR-RES 0.0395 µM | UO-31 < 0.0104 µM | NCI-H522 < 0.032 µM
0.39 µM: HCT-15
inactive: MDA-MB-231 1.24 µM

CC(=O)Nc1ccc2c3c(cc(O)c2c1)N(C(=O)CCCC(=O)N1CC(CCl)c2c1cc(O)c1cc(NC(C)=O)ccc21)CC3CCl (stereo not given)
0.0773 µM: HCT-15
active: BT-549 0.011 µM | HOP-62 < 0.01 µM | MDA-MB-231 < 0.01 µM | SF-268 < 0.01 µM | OVCAR-8 < 0.01 µM | UACC-62 < 0.01 µM | K562 < 0.01 µM | HCC 2998 0.0122 µM | NCI-H460 < 0.01 µM | HCT-116 < 0.01 µM | HL-60 < 0.01 µM | U-251 < 0.01 µM | SK-OV-3 < 0.011 µM | SK-MEL-2 < 0.01 µM | ACHN < 0.01 µM | OVCAR-5 0.0198 µM | NCI/ADR-RES 0.0828 µM | UO-31 < 0.0166 µM | NCI-H522 < 0.01 µM

CCCCCCCCCCCCCCCCCCNc1ccn(C2OC(COP(=O)(O)OCC3OC(n4ccc(NC(=O)CCCCCCCCCCCCCCCCC)nc4=O)C(OC(C)=O)C3OC(C)=O)C(OC(C)=O)C2OC(C)=O)c(=O)n1 (stereo not given)
> 100 µM: HCT-15
inactive: BT-549 > 100 µM | HOP-62 > 100 µM | MDA-MB-231 > 100 µM | SF-268 > 100 µM | OVCAR-8 > 100 µM | UACC-62 > 100 µM | HCC 2998 > 100 µM | NCI-H460 > 100 µM | HCT-116 > 100 µM | HL-60 > 100 µM | U-251 > 100 µM | SK-OV-3 > 100 µM | SK-MEL-2 > 100 µM | ACHN > 100 µM | OVCAR-5 > 100 µM | NCI/ADR-RES > 100 µM | UO-31 > 100 µM | NCI-H522 > 100 µM
active: K562 0.0551 µM

COc1cc2c(c(OC)c1OC)-c1ccc(SC)c(=O)cc1[C@@H](O)CC2
0.000605 µM: HCT-15
active: BT-549 0.00168 µM | HOP-62 0.000834 µM | MDA-MB-231 0.00115 µM | SF-268 0.00128 µM | OVCAR-8 0.00107 µM | UACC-62 0.000469 µM | K562 0.00948 µM | HCC 2998 0.00122 µM | NCI-H460 0.000586 µM | HCT-116 0.000381 µM | HL-60 0.000269 µM | U-251 0.000378 µM | SK-OV-3 0.000392 µM | SK-MEL-2 0.00367 µM | ACHN 0.0011 µM | OVCAR-5 0.0069 µM | NCI/ADR-RES 0.00253 µM | UO-31 0.0208 µM | NCI-H522 0.00065 µM

NC(=O)[N+](=CC(=S)Nc1ccccc1Cl)C(N)=O
> 100 µM: HCT-15
inactive: BT-549 86.9 µM | HOP-62 > 100 µM | MDA-MB-231 > 100 µM | SF-268 > 100 µM | OVCAR-8 > 100 µM | UACC-62 > 100 µM | K562 > 100 µM | HCC 2998 > 100 µM | NCI-H460 > 100 µM | HCT-116 > 100 µM | HL-60 > 100 µM | U-251 > 100 µM | SK-OV-3 > 100 µM | SK-MEL-2 > 100 µM | ACHN > 100 µM | OVCAR-5 > 100 µM | NCI/ADR-RES > 100 µM | UO-31 > 100 µM | NCI-H522 > 100 µM

Cc1cnc2c(c1)C(=O)N(c1ccc(Oc3ccccc3)cc1)S2(=O)=O
inactive: BT-549 > 100 µM | HOP-62 > 100 µM | MDA-MB-231 > 100 µM | SF-268 > 100 µM | OVCAR-8 > 100 µM | UACC-62 > 100 µM | K562 > 100 µM | HCC 2998 > 100 µM | NCI-H460 > 100 µM | HCT-116 > 100 µM | HL-60 > 100 µM | U-251 > 100 µM | SK-OV-3 > 100 µM | SK-MEL-2 > 100 µM | ACHN > 100 µM | OVCAR-5 > 100 µM | NCI/ADR-RES > 100 µM | UO-31 > 100 µM | NCI-H522 57.7 µM
> 100 µM: HCT-15

COC(=O)C1OC(O[C@H]2CC[C@]3(C)[C@H]4CC=C5[C@@H]6CC(C)(C)CC[C@]6(C(=O)OC)[C@H](O)C[C@@]5(C)[C@]4(C)CC[C@H]3C2(C)C)C(O)C(O)C1O (stereo not given in full)
10.5 µM: HCT-15
inactive: BT-549 15.7 µM | HOP-62 17 µM | MDA-MB-231 9.33 µM | SF-268 13.2 µM | OVCAR-8 13.2 µM | UACC-62 12.5 µM | K562 2.8 µM | HCC 2998 2.7 µM | NCI-H460 6.49 µM | HCT-116 4.4 µM | HL-60 3.37 µM | U-251 11.6 µM | SK-OV-3 15 µM | SK-MEL-2 15.1 µM | ACHN 11.5 µM | OVCAR-5 13.1 µM | NCI/ADR-RES 12.2 µM | UO-31 14 µM | NCI-H522 1.57 µM

O=C1C(Cl)=C(Nc2ccc(S(=O)(=O)Nc3ccccn3)cc2)C(=O)c2ccccc21
inactive: BT-549 14.4 µM | HOP-62 13 µM | MDA-MB-231 6.89 µM | SF-268 8.2 µM | OVCAR-8 4.09 µM | UACC-62 5.6 µM | K562 2.23 µM | HCC 2998 12.2 µM | NCI-H460 4.53 µM | HCT-116 6.24 µM | HL-60 3.3 µM | U-251 5.6 µM | SK-OV-3 17 µM | SK-MEL-2 5.7 µM | ACHN 10.6 µM | OVCAR-5 17.9 µM | NCI/ADR-RES 9.93 µM | UO-31 9.84 µM | NCI-H522 5.02 µM
4.36 µM: HCT-15

CCC/C(Cl)=N\OC(=O)Nc1ccc(F)cc1
inactive: BT-549 15.1 µM | HOP-62 19.2 µM | MDA-MB-231 17.9 µM | SF-268 26.1 µM | OVCAR-8 25.4 µM | UACC-62 13.6 µM | K562 1.89 µM | HCC 2998 17.6 µM | NCI-H460 > 100 µM | HCT-116 16.7 µM | HL-60 1.87 µM | U-251 18.2 µM | SK-OV-3 > 45.1 µM | SK-MEL-2 18.2 µM | ACHN 12.3 µM | OVCAR-5 18.7 µM | NCI/ADR-RES 21.1 µM | UO-31 17.7 µM | NCI-H522 1.87 µM
5.82 µM: HCT-15

CC1=C(C(=O)Nc2ccccc2)C(c2ccc(C)o2)C(C#N)=C(SCc2ccccc2)N1 (stereo not given)
inactive: BT-549 43.4 µM | HOP-62 > 100 µM | MDA-MB-231 > 100 µM | SF-268 > 100 µM | OVCAR-8 > 100 µM | UACC-62 18.9 µM | K562 14.4 µM | HCC 2998 > 100 µM | NCI-H460 > 100 µM | HCT-116 33.3 µM | HL-60 17.7 µM | U-251 > 100 µM | SK-OV-3 > 100 µM | SK-MEL-2 > 100 µM | ACHN > 100 µM | OVCAR-5 > 100 µM | NCI/ADR-RES 18.7 µM | UO-31 99.3 µM | NCI-H522 9.55 µM
12.7 µM: HCT-15

c1ccc(N2N=C3N(c4ccccc4)C2N3c2ccccc2)cc1
42.9 µM: HCT-15
inactive: BT-549 68.2 µM | HOP-62 58.2 µM | MDA-MB-231 57.3 µM | SF-268 52.8 µM | OVCAR-8 35.9 µM | UACC-62 25.6 µM | K562 14.7 µM | HCC 2998 27.6 µM | NCI-H460 31.1 µM | HCT-116 31.3 µM | HL-60 38.5 µM | U-251 46.8 µM | SK-OV-3 > 100 µM | SK-MEL-2 24.3 µM | ACHN 40.5 µM | OVCAR-5 71.9 µM | NCI/ADR-RES > 100 µM | UO-31 58.9 µM | NCI-H522 21.6 µM

CCCCn1cnc2c(c(CC#N)nn2-c2ccccc2)c1=N
36.8 µM: HCT-15
inactive: BT-549 37.8 µM | HOP-62 > 100 µM | MDA-MB-231 43.1 µM | SF-268 71.1 µM | OVCAR-8 41.4 µM | UACC-62 20.2 µM | K562 34 µM | HCC 2998 37.1 µM | NCI-H460 39.9 µM | HCT-116 48.6 µM | HL-60 34 µM | U-251 37.9 µM | SK-OV-3 > 100 µM | SK-MEL-2 23.7 µM | ACHN 66.1 µM | OVCAR-5 > 100 µM | NCI/ADR-RES 41.2 µM | UO-31 60.4 µM | NCI-H522 43.1 µM
